Converted amounts (≈) assume the structure as drawn.
How the values were obtained:
[1] = test system: Escherichia coli NIHJ JC-2; assay: In vitro antibacterial activity (MIC), twofold agar-dilution method; type: cell-based; conditions: NIHJJC2; Escherichia coli NIHJ JC-2, twofold agar-dilution; read-out: minimum inhibitory concentration (MIC)
Experimental: (§1) The minimum inhibitory concentrations (MIC: μg/ml) of the following compounds were measured by the twofold agar-dilution method according to the procedure described in Chemotherapy, Vol. 29, No. 1, page 76 (1981).

[2] = test system: Proteus mirabilis IFO 3849-4; assay: as above; type: cell-based; conditions: IFO3849; Proteus mirabilis IFO 3849-4, twofold agar-dilution; read-out: minimum inhibitory concentration (MIC)
Experimental: as §1

Proteus morganii Kono = assay: as above; type: cell-based; conditions: Morganella morganii, read-out: minimum inhibitory concentration (MIC)
Experimental: as §1

[3] = test system: Klebsiella pneumoniae No. 13; assay: as above; type: cell-based; conditions: Klebsiella pneumoniae No. 13, twofold agar-dilution; read-out: minimum inhibitory concentration (MIC)
Experimental: as §1

[4] = test system: Salmonella typhimurium S-9; assay: as above; type: cell-based; conditions: Salmonella enterica; Salmonella typhimurium S-9, twofold agar-dilution; read-out: minimum inhibitory concentration (MIC)
Experimental: as §1

[5] = test system: Salmonella enteritidis No. 1891; assay: as above; type: cell-based; conditions: Salmonella enterica; Salmonella enteritidis No. 1891, twofold agar-dilution; read-out: minimum inhibitory concentration (MIC)
Experimental: as §1

[6] = test system: Pseudomonas aeruginosa No. 12; assay: as above; type: cell-based; conditions: Pseudomonas aeruginosa No. 12, twofold agar-dilution; read-out: minimum inhibitory concentration (MIC)
Experimental: as §1

Escherichia coli P-5101 [7] = assay: as above; type: cell-based; conditions: P5101; Escherichia coli P-5101, twofold agar-dilution; read-out: minimum inhibitory concentration (MIC)
Experimental: as §1

[8] = test system: Pseudomonas aeruginosa Tsuchiijima; assay: as above; type: cell-based; conditions: read-out: minimum inhibitory concentration (MIC)
Experimental: as §1

[9] = test system: Serratia marcescens IFO 3736; assay: as above; type: cell-based; conditions: IFO3736; Serratia marcescens IFO 3736, twofold agar-dilution; read-out: minimum inhibitory concentration (MIC)
Experimental: as §1

Shigella flexneri 2a = assay: as above; type: cell-based; conditions: read-out: minimum inhibitory concentration (MIC)
Experimental: as §1

Enterobacter cloacae 963 = assay: as above; type: cell-based; conditions: Enterobacter cloacae 963, twofold agar-dilution; read-out: minimum inhibitory concentration (MIC)
Experimental: as §1

[10] = test system: Pseudomonas aeruginosa No. 12; assay: In vivo therapeutic efficacy against systemic infections in mice; design: species or system mice (ddY); conditions: 168 h; systemic infection, Pseudomonas aeruginosa No. 12, male mice, po, twice (about 5 minutes and 6 hours after infection), 7 days, Behrens-Kaerber; read-out: median effective dose (ED50)
Experimental: (§2) Compounds 1 and A were each suspended in a 0.2% aqueous solution of sodium carboxymethyl cellulose. Each of the solutions was orally administered to mice infected with each of the test organisms under the conditions described below, and the median effective doses (ED50) obtained are shown in Table II. Male mice (ddY) weighing about 20 g (2) Pseudomonas aeruginosa No. 12: Intraperitoneal infection with about 4×10^3 cells per mouse suspended in trypto-soy broth with 4% mucin. Twice, about 5 minutes and 6 hours after infection. for 7 days. | The numerals in the table show ED50 (mg/kg). ED50 values were | calculated in accordance with the BehrensKaerber method (Arch. Exp. Path. | Pharm., 162, 480 (1931)). | po: oral administration.

Escherichia coli P-5101 [11] = assay: as above; design: species or system mice (ddY); conditions: P5101, 168 h; systemic infection, Escherichia coli P-5101, male mice, po, twice (about 5 minutes and 6 hours after infection), 7 days, Behrens-Kaerber; read-out: median effective dose (ED50)
Experimental: as §2, with “(1) Escherichia coli P-5101:” for “(2) Pseudomonas aeruginosa No. 12:”, “9×10^6” for “4×10^3”

[12] = test system: Pseudomonas aeruginosa No. 12; assay: In vivo therapeutic efficacy against ascending kidney infection; design: species or system mice (Std:ddY-S); conditions: NO.12, 120 h, female mice, po, twice a day for 3 days, kidneys on 5th day, probit analysis
Experimental: Compounds 1 and A were tested by the following procedure for therapeutic efficacy against the ascending kidney infection with Pseudomonas aeruginosa No. 12 in mice. Female mice (Std:ddY-S) weighing 22 to 30 g were anesthetized by intravenous injection of sodium pentobarbital at a dose of 50 mg/kg. Through a small suprapubic incision, the urinary bladder was exposed and then infected by injecting 0.1 ml of a 1:10,000 dilution of Pseudomonas aeruginosa No. 12 cultured for 20 hours in trypto-soy broth, using a 0.25 ml syringe with a 0.25 mm needle. The mice were restrained from drinking water for a period from 1 day before to 1 day after the infection. The compound 1 or A was administered orally twice a day for 3 days starting on the day of infection. On the 5th day after infection, the kidneys were harvested for the detection of the bacteria, transversely bisected and stamped on King A agar, which were incubated at 37° C. overnight. No bacterial finding in the kidneys was regarded as protected from the ascending kidney infection. ED50 values were calculated by probit analysis.

[13] = test system: Pseudomonas aeruginosa No. 12; assay: In vivo therapeutic efficacy against pulmonary infection in mice; design: species or system mice (ddY-S); conditions: NO.12, 120 h, female mice, po, 0, 1 and 3 hours after infection, survival on 5th day, probit analysis
Experimental: (§3) Female mice (ddY-S) weighing 18 to 26 g were intranasally intected with 4 drops of a bacterial suspension* in physiological saline. Drugs suspended in 0.2% sodium carboxymethyl cellulose were orally administered 0, 1, and 3 hours after infection. Survival rates were determined on the 5th day after infection. ED50 was calculated by probit analysis.
*Pseudomonas aeruginosa No. 12--2.0×10^7 cells/mouse

[14] = test system: Pseudomonas aeruginosa No. 12; assay: In vivo therapeutic efficacy against dermal infections; design: species or system mice (ddY-S); conditions: NO.12, 96 h, dermal infection, female mice, po, 6 times (0, 3, 6, 24, 27, 30 hours), abscess on 4th day, probit analysis
Experimental: Female mice (ddY-S) weighing 21 to 26 g were subcutaneously infected at the dorsal skin with approximate 9×10^6 viable cells of Pseudomonas aeruginosa No. 12 in 0.2 ml physiological saline. Medication was performed 6 times; 0, 3, 6, 24, 27, and 30 hours after infection. The appearance of skin abscess at the inoculated site was examined on the 4th day after infection and mice bearing no abscess were regarded as protected from the infection. ED50 was calculated by probit analysis.

[15] = Acute oral toxicity in mice; conditions: mouse, in vivo, male mice, deaths after 7 days, Behrens-Kaerber, read-out: median lethal dose (LD50)
Experimental: A solution containing compound 1 in various concentrations was orally given to male mice (ddY-S) at a volume of 0.1 ml per 10 g of body weight. The number of dead mice was counted after 7 days, and the value of median lethal dose (LD50; mg/kg) was calculated in accordance with the Behrens-Kaerber method.

Gram-negative bacteria = assay: In vivo antibacterial efficacy (Tables II to V), overall comparison; design: species or system mice; conditions: compound 1 compared with compound A
Description: Compounds 1 and A were each suspended in a 0.2% aqueous solution of sodium carboxymethyl cellulose. Each of the solutions was orally administered to mice infected with each of the test organisms under the conditions described below, and the median effective doses (ED50) obtained are shown in Table II.
as §3
Female mice (Std:ddY-S) weighing 22 to 30 g were anesthetized by intravenous injection of sodium pentobarbital at a dose of 50 mg/kg. Through a small suprapubic incision, the urinary bladder was exposed and then infected by injecting 0.1 ml of a 1:10,000 dilution of Pseudomonas aeruginosa No. 12 cultured for 20 hours in trypto-soy broth, using a 0.25 ml syringe with a 0.25 mm needle. […] ED50 values were calculated by probit analysis.
Female mice (ddY-S) weighing 21 to 26 g were subcutaneously infected at the dorsal skin with approximate 9×10^6 viable cells of Pseudomonas aeruginosa No. 12 in 0.2 ml physiological saline. […] ED50 was calculated by probit analysis.

For `CCn1cc(C(=O)O)c(=O)c2cc(F)c(N3CCC(N)C3)nc21` (stereo not drawn) [A, 7-(3-Amino-1-pyrrolidinyl)-1-ethyl-6-fluoro-1,4-dihydro-4-oxo-1,8-naphthyridine-3-carboxylic acid, reference compound], the MIC [1] was 0.1 µg/mL (≈ 0.312 µM), the MIC [2] was 0.39 µg/mL (≈ 1.22 µM) and the MIC (Proteus morganii Kono) was 0.2 µg/mL (≈ 0.624 µM). For the same compound, the MIC [3] was 0.2 µg/mL (≈ 0.624 µM), the MIC [4] was 0.1 µg/mL (≈ 0.312 µM) and the MIC [5] was 0.05 µg/mL (≈ 0.156 µM). It also gave an MIC [6] of 0.39 µg/mL (≈ 1.22 µM), an MIC (Escherichia coli P-5101 [7]) of 0.05 µg/mL (≈ 0.156 µM) and an MIC [8] of 0.39 µg/mL (≈ 1.22 µM). The MIC [9] was 0.2 µg/mL (≈ 0.624 µM), the MIC (Shigella flexneri 2a) was 0.1 µg/mL (≈ 0.312 µM) and the MIC (Enterobacter cloacae 963) was 0.2 µg/mL (≈ 0.624 µM). For the same compound, the ED50 [10] was 6.7 mg/kg, the ED50 (Escherichia coli P-5101 [11]) was 1.6 mg/kg and the ED50 [12] was 3 mg/kg. It also gave an ED50 [13] of 19.7 mg/kg and an ED50 [14] of 11.7 mg/kg.

Work on `C=Cn1cc(C(=O)O)c(=O)c2cc(F)c(N3CCC(N)C3)nc21` (stereo not drawn) [Compound 1, 7-(3-Amino-1-pyrrolidinyl)-6-fluoro-1,4-dihydro-4-oxo-1-vinyl-1,8-naphthyridine-3-carboxylic acid] yielded an LD50 at 168 h [15] greater than 4000 mg/kg, an MIC [1] of 0.025 µg/mL (≈ 0.0785 µM) and an MIC [2] of 0.2 µg/mL (≈ 0.628 µM). For the same compound, the MIC (Proteus morganii Kono) was 0.05 µg/mL (≈ 0.157 µM), the MIC [3] was 0.1 µg/mL (≈ 0.314 µM) and the MIC [4] was 0.05 µg/mL (≈ 0.157 µM). It also gave an MIC [5] of 0.025 µg/mL (≈ 0.0785 µM), an MIC [6] of 0.2 µg/mL (≈ 0.628 µM) and an MIC (Escherichia coli P-5101 [7]) of 0.025 µg/mL (≈ 0.0785 µM). The MIC [8] was 0.2 µg/mL (≈ 0.628 µM), the MIC [9] was 0.2 µg/mL (≈ 0.628 µM) and the MIC (Shigella flexneri 2a) was 0.025 µg/mL (≈ 0.0785 µM). For the same compound, the MIC (Enterobacter cloacae 963) was 0.05 µg/mL (≈ 0.157 µM), the ED50 [10] was 1.8 mg/kg and the ED50 (Escherichia coli P-5101 [11]) was 0.8 mg/kg. It also gave an ED50 [12] of 0.5 mg/kg, an ED50 [13] of 6.3 mg/kg and an ED50 [14] of 2.4 mg/kg. For the same compound, the “in vivo antibacterial efficacy against Gram-negative bacteria” value (Gram-negative bacteria) was “much better in vivo antibacterial efficacy against Gram-negative bacteria than the compound A”.
